Experimental data reported in patent US20260262643A1, “HERBICIDAL BENZOXAZINES” (FMC CORPORATION, priority 2022, published 2026).

Experiments:
[1] = system: sedge, umbrella; assay: Test D flooded paddy test; assay type: in vivo, Cyperus difformis; conditions: 250 g ai/ha, applied to paddy water, visual rating after 13 to 14 days, scale 0 to 100 (0 no effect, 100 complete control)
How it was run: (§1)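 At the 2-leaf stage, floodwater 3 cm deep received the test compound; that depth persisted throughout. Plants scored visually 13 to 14 days on, 0 (no effect) to 100 (complete control), dash indicating no result.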

[2] = system: green foxtail; assay: Test C postemergence; assay type: in vivo, Setaria viridis; conditions: 10 days, 0 to 100 scale (0 no effect, 100 complete control)
How it was run: (§2)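 Greenhouse herbicide screen, 10-day duration. Test chemicals in solvent/surfactant blend were sprayed onto soil at sowing (pre) or onto 2–10 cm seedlings at one to two leaves (post); injury scored visually against controls, 0 no effect to 100 complete control.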

[3] = system: ryegrass, Italian; assay: Test C preemergence; assay type: in vivo, Lolium multiflorum
How it was run: as §2

[4] = system: wheat; assay: Test C preemergence; assay type: in vivo, Triticum aestivum
How it was run: as §2

[5] = system: kochia; assay: Test C preemergence; assay type: in vivo, Bassia scoparia
How it was run: as §2

[6] = system: pigweed, palmer; assay: Test C postemergence; assay type: in vivo, Amaranthus palmeri; conditions: 10 days, 0 to 100 scale (0 no effect, 100 complete control)
How it was run: as §2

[7] = system: rice; assay: Test D flooded paddy test; assay type: in vivo, Oryza sativa; conditions: 250 g ai/ha, applied to paddy water, visual rating after 13 to 14 days, scale 0 to 100 (0 no effect, 100 complete control)
How it was run: as §1

[8] = system: oat, wild; assay: Test C postemergence; assay type: in vivo, Avena fatua; conditions: 10 days, 0 to 100 scale (0 no effect, 100 complete control)
How it was run: as §2

[9] = system: blackgrass; assay: Test C postemergence; assay type: in vivo, Alopecurus myosuroides; conditions: 10 days, 0 to 100 scale (0 no effect, 100 complete control)
How it was run: as §2

[10] = system: ryegrass, Italian; assay: Test C postemergence; assay type: in vivo, Lolium multiflorum; conditions: 10 days, 0 to 100 scale (0 no effect, 100 complete control)
How it was run: as §2

[11] = system: barnyardgrass; assay: Test C postemergence; assay type: in vivo, Echinochloa crusgalli; conditions: 10 days, 0 to 100 scale (0 no effect, 100 complete control)
How it was run: as §2

[12] = system: wheat; assay: Test C postemergence; assay type: in vivo, Triticum aestivum; conditions: 10 days, 0 to 100 scale (0 no effect, 100 complete control)
How it was run: as §2

[13] = system: kochia; assay: Test C postemergence; assay type: in vivo, Bassia scoparia; conditions: 10 days, 0 to 100 scale (0 no effect, 100 complete control)
How it was run: as §2

[14] = system: ducksalad; assay: Test D flooded paddy test; assay type: in vivo, Heteranthera limosa; conditions: 250 g ai/ha, applied to paddy water, visual rating after 13 to 14 days, scale 0 to 100 (0 no effect, 100 complete control)
How it was run: as §1

[15] = system: galium; assay: Test C postemergence; assay type: in vivo, Galium aparine; conditions: 10 days, 0 to 100 scale (0 no effect, 100 complete control)
How it was run: as §2

[16] = system: soybean; assay: Test C postemergence; assay type: in vivo, Glycine max; conditions: 10 days, 0 to 100 scale (0 no effect, 100 complete control)
How it was run: as §2

[17] = system: green foxtail; assay: Test C preemergence; assay type: in vivo, Setaria viridis
How it was run: as §2

[18] = system: horseweed; assay: Test C postemergence; assay type: in vivo, Erigeron canadensis; conditions: 10 days, 0 to 100 scale (0 no effect, 100 complete control)
How it was run: as §2

[19] = system: ragweed; assay: Test C postemergence; assay type: in vivo, Ambrosia artemisiifolia; conditions: 10 days, 0 to 100 scale (0 no effect, 100 complete control)
How it was run: as §2

[20] = system: blackgrass; assay: Test C preemergence; assay type: in vivo, Alopecurus myosuroides
How it was run: as §2

[21] = system: barnyardgrass; assay: Test D flooded paddy test; assay type: in vivo, Echinochloa crus-galli; conditions: 250 g ai/ha, applied to paddy water, visual rating after 13 to 14 days, scale 0 to 100 (0 no effect, 100 complete control)
How it was run: as §1

[22] = system: corn; assay: Test C postemergence; assay type: in vivo, Zea mays; conditions: 10 days, 0 to 100 scale (0 no effect, 100 complete control)
How it was run: as §2

[23] = system: corn; assay: Test C preemergence; assay type: in vivo, Zea mays
How it was run: as §2

[24] = system: oat, wild; assay: Test C preemergence; assay type: in vivo, Avena fatua
How it was run: as §2

[25] = system: barnyardgrass; assay: Test C preemergence; assay type: in vivo, Echinochloa crusgalli
How it was run: as §2

[26] = system: ragweed; assay: Test C preemergence; assay type: in vivo, Ambrosia artemisiifolia
How it was run: as §2

[27] = system: soybean; assay: Test C preemergence; assay type: in vivo, Glycine max
How it was run: as §2

[28] = system: pigweed, palmer; assay: Test C preemergence; assay type: in vivo, Amaranthus palmeri
How it was run: as §2

[29] = 500 g ai/ha, preemergence, 0 to 100 scale (0 no effect, 100 complete control)
[30] = Preemergence, 125 g ai/ha, 0 to 100 scale, 0 no effect, 100 complete control

## CC(C)(C)c1ncn(-c2cccc(C(=O)N3CC(C(F)(F)F)Oc4c(Cl)cccc43)c2)n1 (stereo not shown) [Compound 353]
[1]
  Plant response rating, Sedge, Umbrella (Flood): 0
[2]; 500 g ai/ha, postemergence
  Plant response rating, Foxtail, Green: 40
[2]; Postemergence, 125 g ai/ha
  Plant response rating, Foxtail, Green: 20
[3]; [29]
  Ryegrass, Italian plant response rating: 90
[3]; [30]
  Plant response rating, Ryegrass, Italian: 80
[4]; [29]
  Wheat plant response rating: 30
[4]; [30]
  Plant response rating, Wheat: 10
[5]; [29]
  Kochia plant response rating: 70
[5]; [30]
  Plant response rating, Kochia: 0
[6]; 500 g ai/ha, postemergence
  Plant response rating, Pigweed, Palmer: 100
[6]; Postemergence, 125 g ai/ha
  Plant response rating, Pigweed, Palmer: 90
[7]
  Plant response rating, Rice (Flood): 0
[8]; 500 g ai/ha, postemergence
  Plant response rating, Oat, Wild: 0
[8]; Postemergence, 125 g ai/ha
  Plant response rating, Oat, Wild: 0
[9]; 500 g ai/ha, postemergence
  Plant response rating, Blackgrass: 30
[9]; Postemergence, 125 g ai/ha
  Plant response rating, Blackgrass: 0
[10]; 500 g ai/ha, postemergence
  Plant response rating, Ryegrass, Italian: 40
[10]; Postemergence, 125 g ai/ha
  Plant response rating, Ryegrass, Italian: 20
[11]; 500 g ai/ha, postemergence
  Plant response rating, Barnyardgrass: 30
[11]; Postemergence, 125 g ai/ha
  Plant response rating, Barnyardgrass: 10
[12]; 500 g ai/ha, postemergence
  Plant response rating, Wheat: 20
[12]; Postemergence, 125 g ai/ha
  Plant response rating, Wheat: 20
[13]; 500 g ai/ha, postemergence
  Plant response rating, Kochia: 70
[13]; Postemergence, 125 g ai/ha
  Plant response rating, Kochia: 60
[14]
  Plant response rating, Ducksalad (Flood): 0
[15]; 500 g ai/ha, postemergence
  Plant response rating, Galium: 90
[15]; Postemergence, 125 g ai/ha
  Plant response rating, Galium: 70
[16]; 500 g ai/ha, postemergence
  Plant response rating, Soybean: 80
[16]; Postemergence, 125 g ai/ha
  Plant response rating, Soybean: 80
[17]; [29]
  Foxtail, Green plant response rating: 100
[17]; [30]
  Plant response rating, Foxtail, Green: 90
[18]; 500 g ai/ha, postemergence
  Plant response rating, Horseweed: 0
[18]; Postemergence, 125 g ai/ha
  Plant response rating, Horseweed: 20
[19]; 500 g ai/ha, postemergence
  Plant response rating, Ragweed: 60
[19]; Postemergence, 125 g ai/ha
  Plant response rating, Ragweed: 50
[20]; [29]
  Blackgrass plant response rating: 50
[20]; [30]
  Plant response rating, Blackgrass: 0
[21]
  Plant response rating, Barnyardgrass (Flood): 0
[22]; 500 g ai/ha, postemergence
  Plant response rating, Corn: 10
[22]; Postemergence, 125 g ai/ha
  Plant response rating, Corn: 10
[23]; [29]
  Corn plant response rating: 10
[23]; [30]
  Plant response rating, Corn: 10
[24]; [29]
  Oat, Wild plant response rating: 80
[24]; [30]
  Plant response rating, Oat, Wild: 30
[25]; [29]
  Barnyardgrass plant response rating: 70
[25]; [30]
  Plant response rating, Barnyardgrass: 20
[26]; [29]
  Ragweed plant response rating: 0
[26]; [30]
  Plant response rating, Ragweed: 0
[27]; [29]
  Soybean plant response rating: 40
[27]; [30]
  Plant response rating, Soybean: 20
[28]; [29]
  Pigweed, Palmer plant response rating: 100
[28]; [30]
  Plant response rating, Pigweed, Palmer: 90
